Reference: patent US12187728B2 (Raze Therapeutics, Inc., priority 2015, dated 2025)
pIC50: −log10 of the molar value.

target: T1, Human MTHFD2 (Homo sapiens, UniProt P13995); assay: MTHFD2 Activity Assay (dehydrogenase activity, diaphorase/resazurin coupled fluorescence); assay type: biochemical; details: inhibitory activity (IC50 and/or binding constant); 0.2 nM MTHFD2, 11 concentrations
T1 construct: residues 36-350 in Uniport ID P13995; His6 (N); made in house; host or cells: E. coli
T1 sequence (P13995 36-350): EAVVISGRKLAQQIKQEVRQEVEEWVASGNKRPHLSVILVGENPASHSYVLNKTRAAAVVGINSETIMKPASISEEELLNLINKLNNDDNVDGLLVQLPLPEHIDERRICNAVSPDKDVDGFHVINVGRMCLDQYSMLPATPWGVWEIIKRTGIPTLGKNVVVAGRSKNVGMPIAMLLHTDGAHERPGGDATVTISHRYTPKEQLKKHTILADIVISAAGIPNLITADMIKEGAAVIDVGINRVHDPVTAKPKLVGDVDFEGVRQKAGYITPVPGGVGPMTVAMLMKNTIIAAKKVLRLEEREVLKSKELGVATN
Summary of the method: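 Resorufin fluorescence (ex 525, em 598 nm) reports NADH formed by the dehydrogenase via diaphorase coupling. Enzyme (0.2 nM, residues 36-350, N-His6) sat with compound 15 min before 70 μM CH2-THF and 1 mM NAD+ started a 30 min reaction. IC50s come from 4-parameter fits over 11 concentrations.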

SMILES | pIC50
Cc1ccc2[nH]c(Cn3c(=O)c4c(nc(-n5nccc5N)n4C)n(C)c3=O)cc2c1 [Example 218, 8-(5-amino-1H-pyrazol-1-yl)-3,7-dimethyl-1-((5-methyl-1H-indol-2-yl)methyl)-1H-purine-2,6(3H,7H)-dione] | 6.00 to 8.00
Cn1c(-n2nccc2N)nc2c1c(=O)n(Cc1cc3cc(Cl)ccc3[nH]1)c(=O)n2C [Example 219, 8-(5-amino-1H-pyrazol-1-yl)-1-((5-chloro-1H-indol-2-yl)methyl)-3,7-dimethyl-1H-purine-2,6(3H,7H)-dione] | 6.00 to 8.00
Cn1c(Cn2c(=O)c3c(nc(-n4nccc4N)n3C)n(C)c2=O)cc2cc(Cl)ccc21 [Example 220, 8-(5-amino-1H-pyrazol-1-yl)-1-((5-chloro-1-methyl-1H-indol-2-yl)methyl)-3,7-dimethyl-1H-purine-2,6(3H,7H)-dione] | 6.00 to 8.00
Cn1c(N[C@@H]2CCCNC2=O)nc2c1c(=O)n(Cc1cc3ccccc3[nH]1)c(=O)n2C [Example 221, (R)-1-((1H-indol-2-yl)methyl)-3,7-dimethyl-8-(2-oxopiperidin-3-ylamino)-1H-purine-2,6(3H,7H)-dione] | 5.30 to 6.00
Cn1c(CCO)nc2c1c(=O)n(Cc1cc3cc(Cl)ccc3[nH]1)c(=O)n2C [Example 223, 1-((5-chloro-1H-indol-2-yl)methyl)-8-(2-hydroxyethyl)-3,7-dimethyl-1H-purine-2,6(3H,7H)-dione] | 5.30 to 6.00
Cn1c(Cn2c(=O)c3c(nc(Nc4cc[nH]c(=O)n4)n3C)n(C)c2=O)cc2cc(Cl)ccc21 [Example 224, 1-((5-chloro-1-methyl-1H-indol-2-yl)methyl)-3,7-dimethyl-8-(2-oxo-1,2-dihydropyrimidin-4-ylamino)-1H-purine-2,6(3H,7H)-dione] | 6.00 to 8.00
Cn1c(Cn2c(=O)c3c(nc(CCN4CCOCC4)n3C)n(C)c2=O)cc2cc(Cl)ccc21 [Example 225, 1-((5-chloro-1-methyl-1H-indol-2-yl)methyl)-3,7-dimethyl-8-(2-morpholinoethyl)-1H-purine-2,6(3H,7H)-dione] | 6.00 to 8.00
Cn1c(CCN2CCOCC2)nc2c1c(=O)n(Cc1cc3ccccc3[nH]1)c(=O)n2C [Example 226, 1-((1H-indol-2-yl)methyl)-3,7-dimethyl-8-(2-morpholinoethyl)-1H-purine-2,6(3H,7H)-dione] | 6.00 to 8.00
Cc1ccc2[nH]c(Cn3c(=O)c4c(nc(CCN5CCOCC5)n4C)n(C)c3=O)cc2c1 [Example 227, 3,7-dimethyl-1-((5-methyl-1H-indol-2-yl)methyl)-8-(2-morpholinoethyl)-1H-purine-2,6(3H,7H)-dione] | 5.30 to 6.00
Cn1c(CCN2CCOCC2)nc2c1c(=O)n(Cc1cc3cc(Cl)ccc3[nH]1)c(=O)n2C [Example 229, 1-((5-chloro-1H-indol-2-yl)methyl)-3,7-dimethyl-8-(2-morpholinoethyl)-1H-purine-2,6(3H,7H)-dione] | 6.00 to 8.00
Cn1c(Cn2c(=O)c3c(nc(-n4ncnc4N)n3C)n(C)c2=O)cc2cc(Cl)ccc21 [Example 230, 8-(5-amino-1H-1,2,4-triazol-1-yl)-1-((5-chloro-1-methyl-1H-indol-2-yl)methyl)-3,7-dimethyl-1H-purine-2,6(3H,7H)-dione] | 6.00 to 8.00
Cn1c(N)nc2c1c(=O)n(Cc1cc3ccccc3[nH]1)c(=O)n2C [Example 231, 1-((1H-indol-2-yl)methyl)-8-amino-3,7-dimethyl-1H-purine-2,6(3H,7H)-dione] | 5.00 to 5.30
Cc1ccc2[nH]c(Cn3c(=O)c4c(nc(N)n4C)n(C)c3=O)cc2c1 [Example 232, 8-amino-3,7-dimethyl-1-((5-methyl-1H-indol-2-yl)methyl)-1H-purine-2,6(3H,7H)-dione] | < 5.00
Cc1ccc2c(c1)cc(Cn1c(=O)c3c(ncn3C)n(C)c1=O)n2C [Example 233, 1-((1,5-dimethyl-1H-indol-2-yl)methyl)-3,7-dimethyl-1H-purine-2,6(3H,7H)-dione] | 5.00 to 5.30
Cn1cnc2c1c(=O)n(Cc1cc3ccccc3[nH]1)c(=O)n2C [Example 234, 1-((1H-indol-2-yl)methyl)-3,7-dimethyl-1H-purine-2,6(3H,7H)-dione] | 5.30 to 6.00
Cn1cnc2c1c(=O)n(Cc1cc3ccccc3n1C)c(=O)n2C [Example 235, 3,7-dimethyl-1-((1-methyl-1H-indol-2-yl)methyl)-1H-purine-2,6(3H,7H)-dione] | 5.30 to 6.00
Cc1ccc2[nH]c(Cn3c(=O)c4c(ncn4C)n(C)c3=O)cc2c1 [Example 236, 3,7-dimethyl-1-((5-methyl-1H-indol-2-yl)methyl)-1H-purine-2,6(3H,7H)-dione] | 5.30 to 6.00
Cn1c(Cn2c(=O)c3c(nc(N)n3C)n(C)c2=O)cc2cc(Cl)ccc21 [Example 237, 8-amino-1-((5-chloro-1-methyl-1H-indol-2-yl)methyl)-3,7-dimethyl-1H-purine-2,6(3H,7H)-dione] | 5.30 to 6.00
COc1ccc2c(c1)cc(Cn1c(=O)c3c(ncn3C)n(C)c1=O)n2C [Example 238, 1-((5-methoxy-1-methyl-1H-indol-2-yl)methyl)-3,7-dimethyl-1H-purine-2,6(3H,7H)-dione] | < 5.00

SMILES | pIC50
COc1ccc2[nH]c(Cn3c(=O)c4c(ncn4C)n(C)c3=O)cc2c1 [Example 239, 1-((5-methoxy-1H-indol-2-yl)methyl)-3,7-dimethyl-1H-purine-2,6(3H,7H)-dione] | 5.30 to 6.00
Cn1cnc2c1c(=O)n(Cc1cc3cc(Cl)ccc3[nH]1)c(=O)n2C [Example 240, 1-((5-chloro-1H-indol-2-yl)methyl)-3,7-dimethyl-1H-purine-2,6(3H,7H)-dione] | 5.30 to 6.00
Cn1c(N)nc2c1c(=O)n(Cc1cc3cc(Cl)ccc3[nH]1)c(=O)n2C [Example 241, 8-amino-1-((5-chloro-1H-indol-2-yl)methyl)-3,7-dimethyl-1H-purine-2,6(3H,7H)-dione] | 5.00 to 5.30
Cn1cnc2c1c(=O)n(Cc1cc3cc(Cl)ccc3n1C)c(=O)n2C [Example 242, 1-((5-chloro-1-methyl-1H-indol-2-yl)methyl)-3,7-dimethyl-1H-purine-2,6(3H,7H)-dione] | 5.30 to 6.00
COc1ccc2[nH]c(Cn3c(=O)c4c(nc(N)n4C)n(C)c3=O)cc2c1 [Example 243, 8-amino-1-((5-methoxy-1H-indol-2-yl)methyl)-3,7-dimethyl-1H-purine-2,6(3H,7H)-dione] | < 5.00
Cn1c(C(N)=O)nc2c1c(=O)n(Cc1ccc(Cl)c(Cl)c1)c(=O)n2C [Example 244, 1-(3,4-dichlorobenzyl)-3,7-dimethyl-2,6-dioxo-2,3,6,7-tetrahydro-1H-purine-8-carboxamide] | 5.30 to 6.00
Cn1c(NC2COC2)nc2c1c(=O)n(Cc1ccc(Cl)c(Cl)c1)c(=O)n2C [Example 245, 1-(3,4-dichlorobenzyl)-3,7-dimethyl-8-(oxetan-3-ylamino)-1H-purine-2,6(3H,7H)-dione] | 6.00 to 8.00
Cn1c(=O)n(Cc2ccc(Cl)c(Cl)c2)c(=O)c2c1ncn2CC(N)=O [Example 246, 2-(1-(3,4-dichlorobenzyl)-3-methyl-2,6-dioxo-2,3-dihydro-1H-purin-7(6H)-yl)acetamide] | < 5.00
Cn1c(=O)n(Cc2ccc(Cl)c(Cl)c2)c(=O)c2c1ncn2CCO [Example 248, 1-(3,4-dichlorobenzyl)-7-(2-hydroxyethyl)-3-methyl-1H-purine-2,6(3H,7H)-dione] | 5.00 to 5.30
COc1cc(Cn2c(=O)c3c(ncn3C)n(C)c2=O)ccc1Cl [Example 249, 1-(4-chloro-3-methoxybenzyl)-3,7-dimethyl-1H-purine-2,6(3H,7H)-dione] | < 5.00
CCn1c(=O)n(Cc2ccc(Cl)c(Cl)c2)c(=O)c2c1ncn2C [Example 250, 1-(3,4-dichlorobenzyl)-3-ethyl-7-methyl-1H-purine-2,6(3H,7H)-dione] | 5.00 to 5.30
Cn1c(=O)n(Cc2ccc(Cl)c(Cl)c2)c(=O)c2[nH]cnc21 [Example 251, 1-(3,4-dichlorobenzyl)-3-methyl-1H-purine-2,6(3H,7H)-dione] | < 5.00
COCc1cc(Cn2c(=O)c3c(ncn3C)n(C)c2=O)ccc1Cl [Example 252, 1-(4-chloro-3-(methoxymethyl)benzyl)-3,7-dimethyl-1H-purine-2,6(3H,7H)-dione] | < 5.00
Cn1cnc2c(=O)n(Cc3ccc(Cl)c(Cl)c3)c(=O)n(C)c21 [Example 253] | < 5.00
Cn1c(NC2CCC(CO)C2)nc2c1c(=O)n(Cc1ccc(Cl)c(Cl)c1)c(=O)n2C (stereo not shown) [Example 255, 1-(3,4-dichlorobenzyl)-8-(3-(hydroxymethyl)cyclopentylamino)-3,7-dimethyl-1H-purine-2,6(3H,7H)-dione] | 6.00 to 8.00
Cn1cnc2c1c(=O)n(Cc1ccc(Cl)c(C#N)c1)c(=O)n2C [Example 256, 2-chloro-5-((3,7-dimethyl-2,6-dioxo-2,3,6,7-tetrahydro-1H-purin-1-yl)methyl)benzonitrile] | 5.30 to 6.00
Cn1cnc2c1c(=O)n(Cc1cc3cc(C#N)ccc3[nH]1)c(=O)n2C [Example 257, 2-((3,7-dimethyl-2,6-dioxo-2,3,6,7-tetrahydro-1H-purin-1-yl)methyl)-1H-indole-5-carbonitrile] | 5.30 to 6.00
CCOC(=O)[C@H]1C[C@@H](Nc2nc3c(c(=O)n(Cc4ccc(Cl)c(Cl)c4)c(=O)n3C)n2C)C1 [Example 258, (±)-(cis)-ethyl 3-(1-(3,4-dichlorobenzyl)-3,7-dimethyl-2,6-dioxo-2,3,6,7-tetrahydro-1H-purin-8-ylamino)cyclobutanecarboxylate] | 6.00 to 8.00
